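Grown in 96-well plates, cells were treated for 48 hours with each compound at five concentrations. Insufficient inhibition: endpoint recorded as highest concentration tested. At the TGI there is no net growth.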
Experiments:
Assay in all cases: NCI anticancer screen, dose series, 48 h
PC-3 prostate = system: PC-3 prostate
NCI-H226 lung = system: NCI-H226 lung
786-0 renal = system: 786-0 renal
SK-MEL-5 melanoma = system: SK-MEL-5 melanoma
RXF 393 renal = system: RXF 393 renal
HT29 colon = system: HT29 colon
MOLT-4 leukemia = system: MOLT-4 leukemia
M14 melanoma = system: M14 melanoma
NCI-H23 lung = system: NCI-H23 lung
UO-31 renal = system: UO-31 renal
SF-268 CNS = system: SF-268 CNS
HL-60(TB) leukemia = system: HL-60(TB) leukemia
U251 CNS = system: U251 CNS
HOP-62 NSCLC = system: HOP-62 NSCLC
HCT-116 colon = system: HCT-116 colon
NCI/ADR-RES ovarian = system: NCI/ADR-RES ovarian
NCI-H522 lung = system: NCI-H522 lung
K-562 leukemia = system: K-562 leukemia
SK-MEL-28 melanoma = system: SK-MEL-28 melanoma
MDA-MB-435 = system: MDA-MB-435
SW-620 colon = system: SW-620 colon
CCRF-CEM leukemia = system: CCRF-CEM leukemia
TK-10 renal = system: TK-10 renal
SNB-19 CNS = system: SNB-19 CNS
SF-539 CNS = system: SF-539 CNS
MCF7 breast = system: MCF7 breast
CAKI-1 renal = system: CAKI-1 renal
SR leukemia = system: SR leukemia
EKVX NSCLC = system: EKVX NSCLC
T-47D breast = system: T-47D breast
SNB-75 CNS = system: SNB-75 CNS
UACC-257 melanoma = system: UACC-257 melanoma
HCT-15 colon = system: HCT-15 colon
RPMI-8226 leukemia = system: RPMI-8226 leukemia
A549 NSCLC = system: A549 NSCLC
OVCAR-3 ovarian = system: OVCAR-3 ovarian
UACC-62 melanoma = system: UACC-62 melanoma
IGROV1 ovarian = system: IGROV1 ovarian
OVCAR-5 ovarian = system: OVCAR-5 ovarian
OVCAR-8 ovarian = system: OVCAR-8 ovarian
BT-549 breast = system: BT-549 breast
DU-145 prostate = system: DU-145 prostate
MALME-3M melanoma = system: MALME-3M melanoma
SK-OV-3 ovarian = system: SK-OV-3 ovarian
SN12C renal = system: SN12C renal
COLO 205 colon = system: COLO 205 colon
KM12 colon = system: KM12 colon
LOX IMVI melanoma = system: LOX IMVI melanoma

CN1CN(c2ccccc2)C2(CCN(CCc3csc4ccccc34)CC2)C1=O was tested, and the TGI (PC-3 prostate) was 33.5 µM, the TGI (NCI-H226 lung) was 39.6 µM and the TGI (786-0 renal) was 30.5 µM. The TGI (SK-MEL-5 melanoma) was 33.3 µM, the TGI (RXF 393 renal) was 25.3 µM and the TGI (HT29 colon) was 17.8 µM. The TGI (MOLT-4 leukemia) was 41.9 µM, the TGI (M14 melanoma) was 38.4 µM and the TGI (NCI-H23 lung) was 42.5 µM. The TGI (UO-31 renal) was 14.3 µM, the TGI (SF-268 CNS) was over 100 µM and the TGI (HL-60(TB) leukemia) was 31.2 µM. The TGI (U251 CNS) was 29.8 µM, the TGI (HOP-62 NSCLC) was 26.4 µM and the TGI (HCT-116 colon) was 23.4 µM. For the same molecule, the TGI (NCI/ADR-RES ovarian) was 28.1 µM, the TGI (NCI-H522 lung) was 34.4 µM and the TGI (K-562 leukemia) was 40.1 µM. It also gave a TGI (SK-MEL-28 melanoma) of 29.7 µM, a TGI (MDA-MB-435) of 31.6 µM and a TGI (SW-620 colon) of 39.3 µM. The TGI (CCRF-CEM leukemia) was 46.6 µM, the TGI (TK-10 renal) was 34 µM and the TGI (SNB-19 CNS) was 93.4 µM. For the same molecule, the TGI (SF-539 CNS) was 23 µM, the TGI (MCF7 breast) was 33.9 µM and the TGI (CAKI-1 renal) was 30.1 µM. The TGI (SR leukemia) was 80.6 µM, the TGI (EKVX NSCLC) was 43 µM and the TGI (T-47D breast) was 54.2 µM. For the same molecule, the TGI (SNB-75 CNS) was 38.5 µM, the TGI (UACC-257 melanoma) was 28.4 µM and the TGI (HCT-15 colon) was 51.5 µM. The TGI (RPMI-8226 leukemia) was 37.4 µM, the TGI (A549 NSCLC) was 64.2 µM and the TGI (OVCAR-3 ovarian) was 26.6 µM. For the same molecule, the TGI (UACC-62 melanoma) was 38 µM, the TGI (IGROV1 ovarian) was 52.3 µM and the TGI (OVCAR-5 ovarian) was 25.3 µM. The TGI (OVCAR-8 ovarian) was 51.6 µM, the TGI (BT-549 breast) was 17.7 µM and the TGI (DU-145 prostate) was 54.2 µM. For the same molecule, the TGI (MALME-3M melanoma) was 29.1 µM, the TGI (SK-OV-3 ovarian) was 76.9 µM and the TGI (SN12C renal) was 32.1 µM. The TGI (COLO 205 colon) was 35.7 µM, the TGI (KM12 colon) was 25.9 µM and the TGI (LOX IMVI melanoma) was 32.8 µM.

Source: PubChem BioAssay (NCI)
